This is an account of results in patent publication US8802104B2, “Parathyroid hormone receptor activation and stem and progenitor cell expansion” (The General Hospital Corporation, priority 2002, dated 2014).

Assay [1] concerns lin-Sca-1+c-Kit+ cells in bone marrow. Kind of assay: In vivo PTH administration: flow cytometry of lin-Sca-1+c-Kit+ cells. Further details: species or system C57Bl/6 mice. Particulars: four weeks PTH; P<0.01, FIG. 5d. From the text:
Bone marrow mononuclear cells were isolated as described above. Single cell suspensions were then stained with biotinylated lineage antibodies (CD3, CD4, CD8, Ter119, Gr-1, Mac-1 and B220) and phycoerythrin conjugated anti-Sca-1 and anti-c-Kit (Pharmingen, San Diego, Calif.). Cells were then labeled with a secondary fluorescein isothiocyanante conjugated streptavidin and analyzed on a FACScalibur cytometer (Becton Dickinson and Co., Franklin Lakes, N.J.) using Cell Quest software. […]
For PTH administration, 6-8 week old wild type C57/B male mice were used. […] At the end of the treatment period, ionized serum calcium was measured by the Ciba/Corning 634 Ca^++/pH analyzer, and, after euthanasia, the hind limbs and forelimbs were dissected and utilized for cytologic and histologic analysis.
(§1) As treatment of stromal cells with PTH led to an increase in the ability of the stromal cell population to support hematopoietic stem cells, it was investigated whether these effects could be recapitulated in vivo. Wild-type C57Bl/6 mice were injected daily with PTH using an intermittent dosing schedule known to increase osteoblasts, and the frequencies of LTC-ICs in the bone marrow were measured. […]

For assay [2], the system named is hematopoietic progenitors (CFU-C). The experiment in a line: In vivo PTH administration: CFU-C assay. Also on record: species or system C57Bl/6 mice. Particulars: four weeks PTH; P=0.780, FIG. 5g. As to the method:
Mononuclear cells were isolated from the bone marrow and cultured at 10^4 cells/ml in the following medium: 0.9% methylcellulose, 15% FBS, 1% BSA, 10 μg/ml rh insulin, 200 μg/ml human transferrin, 10^−4 M 2-mercaptoethanol, 2 mM L-glutamine, 50 ng/ml rmSCF, 10 ng/ml rmIL-3, 10 ng/ml rhIL-6 and 3 units/ml rhEpo (M3434; Stem Cell Technologies, Vancouver, Canada). At day 10, the total number of colonies were counted and reported as total CFU-Cs.
For PTH administration, 6-8 week old wild type C57/B male mice were used. Rat PTH (1-34) (80 μg/Kg of body weight) was injected intraperitoneally 5×/week for 4 weeks (n=5). Control mice (n=4) were injected with an equivalent volume of vehicle. At the end of the treatment period, ionized serum calcium was measured by the Ciba/Corning 634 Ca^++/pH analyzer, and, after euthanasia, the hind limbs and forelimbs were dissected and utilized for cytologic and histologic analysis.
as §1

The nature of assay [3]: PTH administration following myeloablation and bone marrow transplantation: survival. Format: in vivo, C57Bl/6 mice. Particulars: at 30 days; lethal irradiation, limiting numbers of donor bone marrow cells, pulse dosing of PTH after transplant; FIG. 6. As to the method:
For the competitive transplant studies, 4×10^5 BM MNCs, obtained from CD45.1^+ B6.SJL (Jackson Laboratories, Bar Harbor, Me.) mice were mixed with 2×10^5 cells from mock injected or PTH injected CD45.2^+ C57Bl/6 mice. Recipient B6.SJL mice that had been lethally irradiated 24 hours previously with 10Gy of radiation (^137Cs source) were injected with cells. After 6 weeks, the mice were euthanized with CO2, the BM was removed and flushed with fully supplemented Iscove's Medium. The relative contribution of engraftment from the different cell sources was assessed by flow cytometry utilizing anti-CD45.1 and anti-CD45.2 antibodies (Pharmingen, San Diego, Calif.). To assess the effects of PTH administration post transplantation, recipient C57Bl/6 mice were lethally irradiated and then injected with 2×10^5 BM MNCs from a donor B6.SJL mouse. Twenty-four hours following the injection of the cells, mice were injected with PTH or mock injected as described above for four weeks.
Assessing whether PPR stimulation could affect models relevant to the clinical use of stem cells in humans, the impact of PTH administration on animals undergoing myeloablation and bone marrow transplantation was assessed. Limiting numbers of bone marrow derived donor cells were used to mimic a setting of therapeutic need. […]

The subject of assay [4] is leukemic cells. The experiment in a line: Direct effect of PTH on leukemic cells in vitro. It counts as cell-based.

As for Rat PTH (1-34), in assay [1], the “lin-Sca-1+c-Kit+ cells compared with mock treated controls” value is “higher frequency and absolute number”. The “level of hematopoietic progenitors by CFU-C assay” value in assay [2] is listed as “did not affect”. In assay [3], this substance registered a survival of 100%. For the same substance, the “direct effect on leukemic cells” value in assay [4] is “did not directly affect”.
